This note sets out measurements from patent publication US6713475B2, “Tricyclic benzodiazepines as vasopressin receptor antagonists” (Ortho-McNeil Pharmaceutical, Inc., priority 1999, dated 2004).

The term IC50 denotes the midpoint of a concentration-inhibition curve.

One assay has as its target T1, human V-1 receptor (Homo sapiens, UniProt P37288).
T1 construct: expressed in transfected cells; host or cells: HEK-293
As to the kind of experiment: In vitro recombinant vasopressin receptor binding assay (V1 Bdg), displacement of 3H-arginine vasopressin. The conditions noted are these: for inhibition at 0.1 µM: read-out: V1 Bdg (% inh, 0.1 uM). On the procedure:
In vitro Recombinant Vasopressin Receptor Binding Assay
Compounds were assessed for their ability to displace ^3H-arginine vasopressin from the human V-1 or V-2 receptor in HEK-293 cells. Assay buffer is 50 mM Tris-Cl, 5 mM MgCl2, 0.1% BSA (pH 7.5) containing 5 ug/ml of aprotinin, leupeptin, pepstatin, 50 ug/ml bacitracin, and 1 mM Pefabloc. ^3H-vasopressin is ^3H-arginine-8-vasopressin (68.5 Ci/mmol, final concentration in assay is 0.65-0.75 nM). Into wells of 96-well round bottom polypropylene plates were added buffer, test compound, membrane (containing cloned human V-1 or V-2 receptor), and ^3H-vasopressin. The reaction plates were allowed to sit at room temperature for one hour. The samples were filtered through Unifilter GF/C plates (presoaked in 0.3 polyethyleneimine). The plates were washed 5 times with cold physiological saline containing 0.05% Tween 20. After drying, the bottom of the filter plates were sealed and 0.025 ml of Microscint-20 was added to each filter. The top of the plate was sealed, and the plate was counted. Non-specific binding was determined by the addition of 1.25 uM arginine-8-vasopressin in those wells.

The next assay addresses V2 (Homo sapiens, UniProt P30518). As to the kind of experiment: In vitro recombinant vasopressin receptor binding assay (V2 Bdg), displacement of 3H-arginine vasopressin. On the set-up: expressed in transfected cells; host or cells: HEK-293. The conditions noted are these: for IC50: membrane with cloned human V-2 receptor (HEK-293); for V2 Bdg % inh: 0.1 uM, printed in parentheses in place of IC50. In outline:
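Displacement of ³H-vasopressin from membranes of HEK-293 cells bearing cloned human V-2 receptor, incubated with test compound one hour at room temperature. Bound label was collected on PEI-soaked GF/C filters, washed with cold saline/0.05% Tween 20, and counted by scintillation.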
On the technique in general: In a radioligand displacement assay an active substance lowers the binding of a labelled ligand.

T1 sequence (P37288 whole entry): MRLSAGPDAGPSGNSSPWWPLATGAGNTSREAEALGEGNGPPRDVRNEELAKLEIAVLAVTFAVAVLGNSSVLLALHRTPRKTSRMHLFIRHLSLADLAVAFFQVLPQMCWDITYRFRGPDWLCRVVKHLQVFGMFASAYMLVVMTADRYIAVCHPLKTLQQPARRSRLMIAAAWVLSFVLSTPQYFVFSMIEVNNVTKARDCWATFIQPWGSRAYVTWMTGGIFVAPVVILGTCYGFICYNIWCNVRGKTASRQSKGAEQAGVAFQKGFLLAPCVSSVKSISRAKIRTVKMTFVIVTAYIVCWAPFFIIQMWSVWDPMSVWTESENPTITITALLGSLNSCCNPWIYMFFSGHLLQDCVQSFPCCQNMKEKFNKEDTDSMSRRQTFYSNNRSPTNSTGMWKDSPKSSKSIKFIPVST

Take `O=C(Nc1ccc(C(=O)N2CC3CSCCN3Cc3cc(F)ccc32)cc1)c1ccccc1-c1ccccc1` (racemic) [Compound 32, (RS)-2-Phenyl-N-[4-(8-fluoro-1,3,4,12a-tetrahydro-6H-[1,4]thiazino[4,3-a][1,4]-benzodiazepin-11(12H)-yl-carbonyl)phenyl]benzamide]: the inhibition at 10 µM on human V-1 receptor (10 uM, read-out: V1 Bdg % inh) was 44%. In addition, the IC50 at V2 was 20 nM.

As for `Cc1cc(NC(=O)c2ccccc2-c2ccccc2)ccc1C(=O)N1CC2CN(C)CCN2Cc2ccccc21` (racemic) [Compound 89, (RS)-2-Phenyl-N-[3-methyl-4-(1,3,4,12a-tetrahydro-2-methyl-6H-[1,4]pyrazino[4,3-a][1,4]-benzodiazepin-11(12H)-yl-carbonyl)phenyl]benzamide], the “V1 Bdg % inh” value at human V-1 receptor (1 uM) is reported as “(51%/1 uM)”. In addition, the “V2 Bdg % inh” value at V2 was “(56%/0.1 uM)”.

Regarding “(RS)-2-Phenyl-N-[4-(8,9-dimethoxy-1,3,4,12a-tetrahydro-6H-[1,4]thiazino[4,3-a][1,4]-benzodiazepin-11(12H)-yl-carbonyl)phenyl]benzamide [Compound 33]”, on human V-1 receptor (10 uM), the “V1 Bdg % inh” value stood at 6%/10 uM. The “V2 Bdg % inh” value at V2 is “(19%/0.1 uM)”.

`Cc1csc(-c2cc(F)ccc2C(=O)Nc2ccc(C(=O)N3CC4COCCN4Cc4ccccc43)c(Cl)c2)c1` (racemic) [Compound 9, (RS)-2-(4-Methyl-2-thienyl)-4-fluoro-N-[3-chloro-4-(1,3,4,12a-tetrahydro-6H-[1,4]oxazino[4,3-a][1,4]-benzodiazepin-11(12H)-yl-carbonyl)phenyl]benzamide]: the inhibition at 0.1 µM at human V-1 receptor was 18%. At V2, the IC50 was 11 nM.

Consider `CN1CCN2Cc3ccccc3N(C(=O)c3ccc(NC(=O)c4cccc(Cl)c4Cl)cc3Cl)CC2C1` (racemic) [Compound 97, (RS)-2,3-Dichloro-N-[3-chloro-4-(1,3,4,12a-tetrahydro-2-methyl-6H-[1,4]pyrazino[4,3-a][1,4]-benzodiazepin-11(12H)-yl-carbonyl)phenyl]benzamide], for which the “V1 Bdg % inh” value on human V-1 receptor (1 uM) was “(21%/1 uM)”. Also, the “V2 Bdg % inh” value at V2 was “(9%/0.1 uM)”.

Take `CN1CCN2Cc3ccccc3N(C(=O)c3ccc(NC(=O)c4cc(F)ccc4-c4ccccc4)cc3Cl)CC2C1` (racemic) [Compound 100, (RS)-2-Phenyl-5-fluoro-N-[3-chloro-4-(1,3,4,12a-tetrahydro-2-methyl-6H-[1,4]pyrazino[4,3-a][1,4]-benzodiazepin-11(12H)-yl-carbonyl)phenyl]benzamide]: the inhibition at 1 µM at human V-1 receptor (1 uM, read-out: V1 Bdg % inh) is 6%. Moreover, at V2, the half-inhibitory concentration (IC50) turned out to be 37 nM. Also, on V2 (read-out: V2 Bdg % inh), the inhibition at 0.1 µM amounted to 72%.

Regarding `Cc1ccccc1C(=O)Nc1ccc(C(=O)N2CC3COCCN3Cc3ccccc32)cc1` (racemic) [Compound 26, (RS)-2-Methyl-N-[4-(1,3,4,12a-tetrahydro-6H-[1,4]oxazino[4,3-a][1,4]-benzodiazepin-11(12H)-yl-carbonyl)phenyl]benzamide], the “V1 Bdg (% inh, 0.1 uM)” value at human V-1 receptor is recorded as 58%. Further, the “V2 Bdg % inh” value on V2 is “(65%/0.1 uM)”.

Take `Cc1ccccc1C(=O)Nc1ccc(C(=O)N2CC3CN(C)CCN3Cc3ccccc32)c(Cl)c1` (racemic) [Compound 61, (RS)-2-Methyl-N-[3-chloro-4-(1,3,4,12a-tetrahydro-2-methyl-6H-[1,4]pyrazino[4,3-a][1,4]-benzodiazepin-11(12H)-yl-carbonyl)phenyl]benzamide]: on human V-1 receptor (1 uM), the “V1 Bdg % inh” value is on record as “(21%/1 uM)”. Also, at V2, the “V2 Bdg % inh” value was “(28%/0.I uM)”.

Turning to `Cc1ccc(-c2ccccc2C(=O)Nc2ccc(C(=O)N3CC4COCCN4Cc4ccccc43)c(C)c2)cc1` (racemic) [Compound 28, (RS)-2-(4-Methyl-phenyl)-N-[3-methyl-4-(1,3,4,12a-tetrahydro-6H-[1,4]oxazino[4,3-a][1,4]-benzodiazepin-11(12H)-yl-carbonyl)phenyl]benzamide], at human V-1 receptor, the inhibition at 0.1 µM was determined as 14%. For the same molecule, the IC50 at V2 is 10 nM.

On to `O=C(Nc1ccc(C(=O)N2CC3COCCN3Cc3ccccc32)c(Cl)c1)c1cccc(Cl)c1F` (racemic) [Compound 18, (RS)-2-Fluoro-3-chloro-N-[3-chloro-4-(1,3,4,12a-tetrahydro-6H-[1,4]oxazino[4,3-a][1,4]-benzodiazepin-11(12H)-yl-carbonyl)phenyl]benzamide], for which the inhibition at 0.1 µM at human V-1 receptor is 15%. In addition, the half-inhibitory concentration (IC50) at V2 came out at 18 nM.

Consider `O=C(Nc1ccc(C(=O)N2C[C@H]3COCCN3Cc3ccccc32)c(Cl)c1)c1cc(O)ccc1-c1ccccc1` [Compound 8, (S)-2-Phenyl-5-hydroxy-N-[3-chloro-4-(1,3,4,12a-tetrahydro-6H-[1,4]oxazino[4,3-a][1,4]-benzodiazepin-11(12H)-yl-carbonyl)phenyl]benzamide], for which the inhibition at 0.1 µM on human V-1 receptor stood at 32%. Further, the half-inhibitory concentration (IC50) at V2 is 27 nM.

On to `COc1cc(NC(=O)c2ccccc2C)ccc1C(=O)N1CC2CN(C)CCN2Cc2ccccc21` (racemic) [Compound 83, (RS)-2-Methyl-N-[3-methoxy-4-(1,3,4,12a-tetrahydro-2-methyl-6H-[1,4]pyrazino[4,3-a][1,4]-benzodiazepin-11(12H)-yl-carbonyl)phenyl]benzamide], for which, on human V-1 receptor (1 uM), the “V1 Bdg % inh” value is on record as “(44%/1 uM)”. Further, the “V2 Bdg % inh” value on V2 is reported as “(10%/0.1 uM)”.

On to `Cc1ccc2c(c1)CN1CCSCC1CN2C(=O)c1ccc(NC(=O)c2ccccc2-c2ccccc2)cc1` (racemic) [Compound 36, (RS)-2-Phenyl-N-[4-(8-methyl-1,3,4,12a-tetrahydro-6H-[1,4]thiazino[4,3-a][1,4]-benzodiazepin-11(12H)-yl-carbonyl)phenyl]benzamide], for which the inhibition at 0.1 µM on human V-1 receptor turned out to be 76%. Moreover, the IC50 on V2 came out at 18 nM.

With `Cc1cc(C(=O)N2CC3CN(C)CCN3Cc3ccccc32)ccc1NC(=O)c1ccccc1-c1ccccc1` (racemic) [Compound 78, (RS)-2-Phenyl-N-[2-methyl-4-(1,3,4,12a-tetrahydro-2-methyl-6H-[1,4]pyrazino[4,3-a][1,4]-benzodiazepin-11(12H)-yl-carbonyl)phenyl]benzamide], the “V1 Bdg % inh” value on human V-1 receptor (1 uM) was “(2%/1 uM)”. On V2, the “V2 Bdg % inh” value is recorded as “(5%/0.1 uM)”.

Take “(RS)-2-(2-Fluoro-phenyl)-N-[4-(1,3,4,12a-tetrahydro-6H-[1,4]thiazino[4,3-a][1,4]-benzodiazepin-11(12H)-yl-carbonyl)phenyl]benzamide [Compound 45]”: the “V1 Bdg (% inh, 0.1 uM)” value on human V-1 receptor turned out to be 15%. Moreover, the “V2 Bdg % inh” value on V2 is given as “(69%/0.1 uM)”.

Turning to `Cc1c(F)cccc1C(=O)Nc1ccc(C(=O)N2CC3CN(C)CCN3Cc3ccccc32)c(Cl)c1` (racemic) [Compound 102, (RS)-2-Methyl-3-fluoro-N-[3-chloro-4-(1,3,4,12a-tetrahydro-2-methyl-6H-[1,4]pyrazino[4,3-a][1,4]-benzodiazepin-11(12H)-yl-carbonyl)phenyl]benzamide], the “V1 Bdg % inh” value at human V-1 receptor (1 uM) is recorded as “(12%/1 uM)”. Moreover, the “V2 Bdg % inh” value on V2 is “(20%/0.1 uM)”.

As to `CN1CCN2Cc3ccccc3N(C(=O)c3ccc(NC(=O)c4c(Cl)cccc4Cl)cc3Cl)CC2C1` (racemic) [Compound 98, (RS)-2,6-Dichloro-N-[3-chloro-4-(1,3,4,12a-tetrahydro-2-methyl-6H-[1,4]pyrazino[4,3-a][1,4]-benzodiazepin-11(12H)-yl-carbonyl)phenyl]benzamide], the “V1 Bdg % inh” value on human V-1 receptor (1 uM) was “(26%/1 uM)”. In addition, at V2, the “V2 Bdg % inh” value is “(12%/0.1 uM)”.
